From paper PMC10529594, “Strasseriolides display in vitro and in vivo activity against trypanosomal parasites and cause morphological and size defects in Trypanosoma cruzi” (PLOS Neglected Tropical Diseases, 2023)

Tests used:
T. cruzi trypomastigotes = assay: T. cruzi trypomastigote viability / rate of action assay (CellTiter-Glo bioluminescence); format: cell-based, Trypanosoma cruzi; conditions: for EC50: Trypanosoma cruzi; for Hill slope: Trypomastigotes
Experimental: (§1) Tulahuen T. cruzi trypomastigotes were recovered 6 days post infection from the supernatant of harvested infected L6 cells cultures after 3 hours at 37°C. 90 μL of parasite culture at a density of 5 × 10^6 cells in RPMI 1640 media were dispensed into 96 Nunc flat bottom assay plates containing 10 μL of each compound.
Parasite viability was assessed upon 24, 48 and 72 hour incubation at 37°C in 5% CO2 by adding 50 μL of CellTiter-Glo viability reagent to white 96-well microplates. After signal stabilization, bioluminescence was read. Compound concentrations ranged from 0.1 μM to 50 μM and final maximal DMSO percentage in the well was 0.05%. Results were normalized to […] control columns in each plate.

[1] = system: T. cruzi Tulahuen C4 trypomastigotes; assay: T. cruzi trypomastigote viability assay (resazurin fluorescence); format: cell-based, Trypanosoma cruzi; conditions: Trypanosoma cruzi, TULAHUEN, 72 h, Tulahuen C4, 72 hours at 37°C
Experimental: as §1
In the fluorescence assay, plates were incubated for 24 and 48 hours after which 10 μL of the resazurin solution were added to each well. Plates were further incubated for 24 hours and fluorescence was measured at 550/590 nm using a Tecan Infinite 200 microplate reader. […] Final maximal DMSO percentage in the well was 0.1% and compound concentrations ranged from 0.2 to 100 μM.

[2] = system: T. cruzi Tulahuen C4 intracellular amastigotes; assay: β-D-galactosidase transgenic T. cruzi assay (intracellular amastigotes in L6 cells, CPRG); format: cell-based; conditions: Trypanosoma cruzi; for inhibition at 0.00152588 µM / inhibition at 0.00305176 µM / inhibition at 0.00610352 µM / inhibition at 0.012207 µM / inhibition at 0.0244141 µM / inhibition at 0.0488281 µM / inhibition at 0.0976562 µM / inhibition at 0.195312 µM / inhibition at 0.390625 µM / inhibition at 0.78125 µM / inhibition at 1.5625 µM / inhibition at 3.125 µM / inhibition at 6.25 µM / inhibition at 12.5 µM / inhibition at 25 µM / inhibition at 50 µM: TULAHUEN, L6, T. cruzi amastigotes, 96-hour treatment, read-out: Growth inhibition (%) Average; for EC50: Tulahuen C4 in L6 cells, 96 h, CPRG
Experimental: The Trypanosoma cruzi Tulahuen strain used is a genetically modified strain that expresses the Escherichia coli β-galactosidase gene, lacZ [31]. It was kindly supplied by Marcel Kaiser (Swiss Tropical and Public Health Institute). The T. cruzi Tulahuen C4 strain was cultured in RPMI-1640 supplemented with 10% inactivated FBS (iFBS), 1.7 mM L-glutamine, 100 U/mL penicillin, and […] at 37°C and 5% CO2. L6 rat skeletal muscle cells were purchased from ATCC (reference CRL-1458) and used as host cells for infection with transgenic T. cruzi trypomastigotes. Epimastigotes were obtained by differentiation in LIT medium with 10% iFBS at 28°C from trypomastigote forms.
A Thermo Scientific Multidrop Combi dispenser was used to dispense 55 μL of T. cruzi infected L6 cells (2 ×10^3 cells per well) into 384-well Corning assay plates already containing 5 μL of each compound at concentrations ranging from 0.0015 to 50 μM and controls. The plates were incubated at 37°C for 96 hours upon which 15 μL of lysis buffer (0.5 mM CPRG, 0.5% NP40) were added to each well and further incubated for 4 hours in the dark. Absorbance at 585 nm was measured in a Perkin Elmer Envision plate reader.

O=C(Cn1ccnc1[N+](=O)[O-])NCc1ccccc1 [Benznidazole, benznidazole]
RLU Average, trypomastigote viability (T. cruzi trypomastigotes; 24 h, 0.0976562 µM, untreated 165925): 168859 RLU | RLU Average, trypomastigote viability (T. cruzi trypomastigotes; 24 h, 0.195312 µM, untreated 165925): 163337 RLU | RLU Average, trypomastigote viability (T. cruzi trypomastigotes; 24 h, 0.390625 µM, untreated 165925): 166320 RLU | RLU Average, trypomastigote viability (T. cruzi trypomastigotes; 24 h, 0.78125 µM, untreated 165925): 165144 RLU | RLU Average, trypomastigote viability (T. cruzi trypomastigotes; 24 h, 1.5625 µM, untreated 165925): 164063 RLU | RLU Average, trypomastigote viability (T. cruzi trypomastigotes; 24 h, 3.125 µM, untreated 165925): 161383 RLU | RLU Average, trypomastigote viability (T. cruzi trypomastigotes; 24 h, 6.25 µM, untreated 165925): 134179 RLU | RLU Average, trypomastigote viability (T. cruzi trypomastigotes; 24 h, 12.5 µM, untreated 165925): 39621 RLU | RLU Average, trypomastigote viability (T. cruzi trypomastigotes; 24 h, 25 µM, untreated 165925): 10652 RLU | RLU Average, trypomastigote viability (T. cruzi trypomastigotes; 24 h, 50 µM, untreated 165925): 5606 RLU | RLU Average, trypomastigote viability (T. cruzi trypomastigotes; 48 h, 0.0976562 µM, untreated 141819): 139946 RLU | RLU Average, trypomastigote viability (T. cruzi trypomastigotes; 48 h, 0.195312 µM, untreated 141819): 134140 RLU | RLU Average, trypomastigote viability (T. cruzi trypomastigotes; 48 h, 0.390625 µM, untreated 141819): 131074 RLU | RLU Average, trypomastigote viability (T. cruzi trypomastigotes; 48 h, 0.78125 µM, untreated 141819): 112587 RLU | RLU Average, trypomastigote viability (T. cruzi trypomastigotes; 48 h, 1.5625 µM, untreated 141819): 83947 RLU | RLU Average, trypomastigote viability (T. cruzi trypomastigotes; 48 h, 3.125 µM, untreated 141819): 48357 RLU | RLU Average, trypomastigote viability (T. cruzi trypomastigotes; 48 h, 6.25 µM, untreated 141819): 13088 RLU | RLU Average, trypomastigote viability (T. cruzi trypomastigotes; 48 h, 12.5 µM, untreated 141819): 3643 RLU | RLU Average, trypomastigote viability (T. cruzi trypomastigotes; 48 h, 25 µM, untreated 141819): 1831 RLU | RLU Average, trypomastigote viability (T. cruzi trypomastigotes; 48 h, 50 µM, untreated 141819): 1028 RLU | RLU Average, trypomastigote viability (T. cruzi trypomastigotes; 72 h, 0.0976562 µM, untreated 100126): 104132 RLU | RLU Average, trypomastigote viability (T. cruzi trypomastigotes; 72 h, 0.195312 µM, untreated 100126): 98515 RLU | RLU Average, trypomastigote viability (T. cruzi trypomastigotes; 72 h, 0.390625 µM, untreated 100126): 89377 RLU | RLU Average, trypomastigote viability (T. cruzi trypomastigotes; 72 h, 0.78125 µM, untreated 100126): 67508 RLU | RLU Average, trypomastigote viability (T. cruzi trypomastigotes; 72 h, 1.5625 µM, untreated 100126): 34320 RLU | RLU Average, trypomastigote viability (T. cruzi trypomastigotes; 72 h, 3.125 µM, untreated 100126): 15352 RLU | RLU Average, trypomastigote viability (T. cruzi trypomastigotes; 72 h, 6.25 µM, untreated 100126): 4824 RLU | RLU Average, trypomastigote viability (T. cruzi trypomastigotes; 72 h, 12.5 µM, untreated 100126): 2711 RLU | RLU Average, trypomastigote viability (T. cruzi trypomastigotes; 72 h, 25 µM, untreated 100126): 1262 RLU | RLU Average, trypomastigote viability (T. cruzi trypomastigotes; 72 h, 50 µM, untreated 100126): 683 RLU | EC50 (T. cruzi trypomastigotes; 24 h): 8940 nM | EC50 (T. cruzi trypomastigotes; 48 h): 2050 nM | EC50 (T. cruzi trypomastigotes; 72 h): 1150 nM | Hill slope (T. cruzi trypomastigotes; 24 h): 3.93 | Hill slope (T. cruzi trypomastigotes; 48 h): 1.66 | Hill slope (T. cruzi trypomastigotes; 48 h, listed as benznidazole): below 2.1 | Hill slope (T. cruzi trypomastigotes; 72 h): 2.07 | Hill slope (T. cruzi trypomastigotes; 72 h, listed as benznidazole): below 2.1 | EC50 [1]: 3930 nM | inhibition at 0.00152588 µM [2]: 5.83% | inhibition at 0.00305176 µM [2]: 3.46% | inhibition at 0.00610352 µM [2]: 5.29% | inhibition at 0.012207 µM [2]: 6.58% | inhibition at 0.0244141 µM [2]: 1.91% | inhibition at 0.0488281 µM [2]: 12.4% | inhibition at 0.0976562 µM [2]: 10.6% | inhibition at 0.195312 µM [2]: 16.3% | inhibition at 0.390625 µM [2]: 10.8% | inhibition at 0.78125 µM [2]: 34.7% | inhibition at 1.5625 µM [2]: 74% | inhibition at 3.125 µM [2]: 104% | inhibition at 6.25 µM [2]: 101% | inhibition at 12.5 µM [2]: 103% | inhibition at 25 µM [2]: 106% | inhibition at 50 µM [2]: 105% | EC50 [2]: 1000 nM

C/C1=C\[C@H](C)CCC(=O)/C(C)=C/[C@H](C)C[C@@H](C)CC[C@@H]([C@@H](C)C(=O)O)OC(=O)[C@@H](C)C1 [Strasseriolide A, strasseriolide A]
EC50 [1]: > 25000 nM | inhibition at 0.00152588 µM [2]: 11.7% | inhibition at 0.00305176 µM [2]: 9.68% | inhibition at 0.00610352 µM [2]: 6.95% | inhibition at 0.012207 µM [2]: 5.87% | inhibition at 0.0244141 µM [2]: 3.26% | inhibition at 0.0488281 µM [2]: 6.89% | inhibition at 0.0976562 µM [2]: 2.91% | inhibition at 0.195312 µM [2]: 12.5% | inhibition at 0.390625 µM [2]: 4.42% | inhibition at 0.78125 µM [2]: 3.14% | inhibition at 1.5625 µM [2]: 3.55% | inhibition at 3.125 µM [2]: 3.27% | inhibition at 6.25 µM [2]: 4.63% | inhibition at 12.5 µM [2]: 11.4% | inhibition at 25 µM [2]: 39.4% | inhibition at 50 µM [2]: 86.7% | EC50 [2]: 31000 nM

C/C1=C\[C@H](C)CC[C@@H](O)/C(C)=C/[C@H](C)C[C@@H](C)CC[C@@H]([C@@H](C)C(=O)O)OC(=O)[C@@H](C)C1 [Strasseriolide B, strasseriolide B]
EC50 [1]: < 200 nM | inhibition at 0.00152588 µM [2]: 4.52% | inhibition at 0.00305176 µM [2]: 4.82% | inhibition at 0.00610352 µM [2]: 6.25% | inhibition at 0.012207 µM [2]: 11.4% | inhibition at 0.0244141 µM [2]: 8.7% | inhibition at 0.0488281 µM [2]: 6.79% | inhibition at 0.0976562 µM [2]: 10.8% | inhibition at 0.195312 µM [2]: 52.7% | inhibition at 0.390625 µM [2]: 98.7% | inhibition at 0.78125 µM [2]: 112% | inhibition at 1.5625 µM [2]: 113% | inhibition at 3.125 µM [2]: 113% | inhibition at 6.25 µM [2]: 113% | inhibition at 12.5 µM [2]: 113% | inhibition at 25 µM [2]: 115% | inhibition at 50 µM [2]: 117% | EC50 [2]: 210 nM
